Biological target: Serine/threonine-protein kinase B-raf [V600E] (Homo sapiens, UniProt P15056, V600E)
Test: BRAF V600E Enzyme Assay
Description: A competitive displacement assay was configured for B-Raf that monitors the amount of a fluorescently-tagged “tracer” bound to B-Raf via TR-FRET from an anti-tag Eu-labeled antibody also bound to B-Raf. For full-length FLAG-tagged B-Raf(V600E), the assay mixtures consisted of 25 mM K+HEPES, pH 7.4, 10 mM MgCl2, 0.01% Triton X-100, 1 mM DTT, 2% DMSO (from compound), 50 nM Tracer 1710 (ThermoFisher, PR9176A), 0.5 nM Eu anti-FLAG (M2)-cryptate Ab (Cisbio, 61FG2KLB) and 5 nM full-length, N-terminally FLAG-tagged B-Raf(V600E) (Origene Technologies, TP700031. Compounds were typically diluted in DMSO across an 11-point dosing range created using a 3-fold serial dilution protocol at a top dose of 10 μM. The assay was run in 384-well, polystyrene, low-volume, non-treated, white microtiter plates (Costar 4512) in a final volume of 12 μL. Low control wells included 1 μM of a potent B-Raf inhibitor as a control. The assays were incubated at ambient temperature (typically 22° C.) for 60 min and then read on a PerkinElmer EnVision microplate reader using standard TRF settings (λEx=320 nm, λEm=615 & 665 nm).

Chain of Serine/threonine-protein kinase B-raf [V600E] (P15056 2-766 V600E limits assumed): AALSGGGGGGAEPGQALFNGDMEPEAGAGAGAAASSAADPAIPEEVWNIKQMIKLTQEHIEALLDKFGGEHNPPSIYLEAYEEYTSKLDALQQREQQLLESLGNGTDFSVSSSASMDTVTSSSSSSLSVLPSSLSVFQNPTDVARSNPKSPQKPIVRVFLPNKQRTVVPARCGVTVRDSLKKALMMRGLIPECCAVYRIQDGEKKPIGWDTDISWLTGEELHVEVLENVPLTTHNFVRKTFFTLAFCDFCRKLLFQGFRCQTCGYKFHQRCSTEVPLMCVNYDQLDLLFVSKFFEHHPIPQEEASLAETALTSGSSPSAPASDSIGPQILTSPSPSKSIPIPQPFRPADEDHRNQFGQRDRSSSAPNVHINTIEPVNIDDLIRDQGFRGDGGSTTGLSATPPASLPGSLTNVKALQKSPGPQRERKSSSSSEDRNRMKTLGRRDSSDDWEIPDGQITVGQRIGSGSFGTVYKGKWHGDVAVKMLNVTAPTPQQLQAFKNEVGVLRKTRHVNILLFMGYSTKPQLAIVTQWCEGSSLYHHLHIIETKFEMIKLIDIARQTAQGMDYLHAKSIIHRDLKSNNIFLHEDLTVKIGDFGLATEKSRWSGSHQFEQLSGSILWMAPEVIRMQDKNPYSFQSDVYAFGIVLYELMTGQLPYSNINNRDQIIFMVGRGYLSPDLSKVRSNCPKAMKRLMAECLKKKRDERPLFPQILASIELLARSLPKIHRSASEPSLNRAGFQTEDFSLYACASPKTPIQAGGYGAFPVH

| IC50 | Structure (SMILES) |
| --- | --- |
| 8 nM | Cn1cnc2ccc(Nc3c(F)ccc(NS(=O)(=O)N4CC(OC(F)F)C4)c3Cl)c(Cl)c2c1=O [US12303509, Example 143] |
| 7 nM | Cc1c(Nc2c(F)ccc(NS(=O)(=O)N3CC(C)(F)C3)c2Cl)ccc2ncn(C)c(=O)c12 [US12303509, Example 155] |
| 29 nM | Cc1c(Nc2c(F)ccc(NS(=O)(=O)N3CC4(CCC4)C3)c2Cl)ccc2ncn(C)c(=O)c12 [US12303509, Example 157] |

Reference: BindingDB's records for patent US12303509 (Pfizer, 2025)
